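Each compound was tested at five concentrations against cells in 96-well plates for 48 hours. Abbreviation: GI50, concentration required for 50% inhibition of growth. TGI: total growth inhibition.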
What was measured:
Assay in all cases: inhibition of tumour cell growth, NCI panel, 48 h
MCF7 breast = test system: MCF7 breast
PC-3 prostate = test system: PC-3 prostate
DU-145 prostate = test system: DU-145 prostate
MDA-MB-231 breast = test system: MDA-MB-231 breast
NCI/ADR-RES ovarian = test system: NCI/ADR-RES ovarian
M19-MEL melanoma = test system: M19-MEL melanoma
LXFL 529 NSCLC = test system: LXFL 529 NSCLC
HOP-18 NSCLC = test system: HOP-18 NSCLC
SNB-78 CNS = test system: SNB-78 CNS

## O=C1c2cccnc2C(=O)c2nc3cc(N4CCN(C5CC5)CC4)ccc3nc21
MCF7 breast
  GI50: 0.276 µM
  TGI: 1.78 µM
PC-3 prostate
  GI50: 1.97 µM
  TGI: 23.2 µM
DU-145 prostate
  GI50: 0.242 µM
  TGI: 0.833 µM
MDA-MB-231 breast
  GI50: 2.15 µM
  TGI: 8.08 µM
NCI/ADR-RES ovarian
  GI50: 1.95 µM
  TGI: 8.14 µM

## COc1ccc2c(c1)/C(=C\c1c(C)nc3sccn13)C(=O)N2
MCF7 breast
  TGI: > 100 µM
PC-3 prostate
  GI50: 0.179 µM
  TGI: > 100 µM
DU-145 prostate
  GI50: 0.55 µM
  TGI: > 100 µM
MDA-MB-231 breast
  GI50: < 0.01 µM
  TGI: 26.2 µM
NCI/ADR-RES ovarian
  TGI: > 42.2 µM

## COc1ccc(-c2c3c(N)nc(-c4ccncc4)nc3nc3c2c(C)nn3-c2ccccc2)cc1
MCF7 breast
  GI50: 4.28 µM
  TGI: > 100 µM
PC-3 prostate
  GI50: > 100 µM
  TGI: > 100 µM
DU-145 prostate
  GI50: 7.39 µM
  TGI: > 100 µM
MDA-MB-231 breast
  GI50: 3.71 µM
  TGI: 46.5 µM
NCI/ADR-RES ovarian
  GI50: 19.7 µM
  TGI: > 100 µM

## COc1cc2c(c(OC)c1)C1c3ccccc3NC(=O)N1CC2 (configuration not stated)
MCF7 breast
  GI50: 3.13 µM
  TGI: > 100 µM
PC-3 prostate
  GI50: 3.89 µM
  TGI: > 100 µM
DU-145 prostate
  GI50: 4.84 µM
  TGI: > 100 µM
MDA-MB-231 breast
  GI50: 3.98 µM
  TGI: > 100 µM

## COc1ccc(/C(C#N)=C/c2ccccc2OC)cc1
MCF7 breast
  GI50: 4.3 µM
  TGI: > 100 µM
PC-3 prostate
  TGI: > 100 µM
DU-145 prostate
  GI50: 27.7 µM
  TGI: > 100 µM
MDA-MB-231 breast
  GI50: 7.02 µM
  TGI: > 100 µM
NCI/ADR-RES ovarian
  GI50: 3.66 µM
  TGI: > 100 µM

## CC(C)[C@H]1CO[C@]2(C)[C@@H]3CN(Cc4ccccc4)C[C@@H]3C(=O)N12
M19-MEL melanoma
  TGI: > 100 µM
LXFL 529 NSCLC
  TGI: > 100 µM
HOP-18 NSCLC
  TGI: > 100 µM

## C1C[OH+]CC[OH+]CCNCC[OH+]CC[OH+]CCN1.N.[Cl-].[Pt+4]
SNB-78 CNS
  GI50: 4.15 µM
  TGI: 63.3 µM
LXFL 529 NSCLC
  GI50: 18.2 µM
  TGI: 64 µM
HOP-18 NSCLC
  GI50: 19.9 µM
  TGI: > 100 µM

## Nc1nc2c(c3ncncc13)C(c1cccc(C(F)(F)F)c1)Cc1ncncc1-2 (configuration not stated)
MCF7 breast
  GI50: 2.96 µM
  TGI: > 100 µM
PC-3 prostate
  GI50: 4.71 µM
  TGI: > 100 µM
DU-145 prostate
  GI50: 3.78 µM
  TGI: > 100 µM
MDA-MB-231 breast
  GI50: 11.1 µM
  TGI: 31.3 µM
NCI/ADR-RES ovarian
  GI50: 3.48 µM
  TGI: > 100 µM

## CCCCCCCCCCCCCCCCN1CC2CCCCC2C1 (configuration not stated)
MCF7 breast
  GI50: 9.57 µM
  TGI: > 100 µM
PC-3 prostate
  GI50: 2.11 µM
  TGI: 5.56 µM
DU-145 prostate
  GI50: 3.85 µM
  TGI: 14.1 µM
MDA-MB-231 breast
  GI50: 4.01 µM
  TGI: 14 µM
NCI/ADR-RES ovarian
  GI50: 4.56 µM
  TGI: 16.8 µM

## CN1CCC(n2cnc(-c3ccc(F)cc3)c2-c2ccnc(NCCO)n2)CC1
MCF7 breast
  GI50: 3.78 µM
  TGI: > 25 µM
PC-3 prostate
  GI50: > 25 µM
  TGI: > 25 µM
DU-145 prostate
  GI50: 22.3 µM
  TGI: > 25 µM
MDA-MB-231 breast
  GI50: > 25 µM
  TGI: > 25 µM
NCI/ADR-RES ovarian
  GI50: > 25 µM
  TGI: > 25 µM

## COc1ccc(-c2nc3sc4c(c3c(=O)[nH]2)CCCCCC4)cc1
PC-3 prostate
  GI50: > 33.2 µM
  TGI: > 33.2 µM
DU-145 prostate
  GI50: > 33.2 µM
  TGI: > 33.2 µM
MDA-MB-231 breast
  GI50: 4.04 µM
  TGI: > 33.2 µM
NCI/ADR-RES ovarian
  GI50: 2.16 µM
  TGI: > 33.2 µM

## CC(CCC(=O)O)[C@H]1CCC2[C@@H]3CC[C@@H]4CC(O)CC[C@]4(C)C3CC[C@@]21C (some centres not stated)
MCF7 breast
  GI50: 30.2 µM
  TGI: > 100 µM
PC-3 prostate
  GI50: 26.2 µM
  TGI: 72.3 µM
DU-145 prostate
  GI50: 44.4 µM
  TGI: > 100 µM
MDA-MB-231 breast
  GI50: 58.7 µM
  TGI: > 100 µM
NCI/ADR-RES ovarian
  GI50: 54.3 µM
  TGI: > 100 µM

## COC(=O)[C@@]1(C)CC[C@]2(C)CC[C@]3(C)C4=CC=C5C(=CC(=O)C(O)=C5C)[C@]4(C)[C@@H](O)C[C@@]3(C)[C@@H]2C1
MCF7 breast
  GI50: 11.3 µM
  TGI: 23.9 µM
PC-3 prostate
  GI50: 8.7 µM
  TGI: 19 µM
DU-145 prostate
  GI50: 12.3 µM
  TGI: 23.3 µM
MDA-MB-231 breast
  GI50: 10.2 µM
  TGI: 21.8 µM
NCI/ADR-RES ovarian
  GI50: 15.3 µM
  TGI: 34.8 µM

## Nc1ccccc1C#C/C=C\C#Cc1cccs1
MCF7 breast
  GI50: 2.34 µM
  TGI: > 100 µM
PC-3 prostate
  GI50: 4.48 µM
  TGI: 27.3 µM
DU-145 prostate
  GI50: 10.2 µM
  TGI: 31.6 µM
MDA-MB-231 breast
  TGI: 4.47 µM
NCI/ADR-RES ovarian
  GI50: 8.69 µM
  TGI: 27.7 µM

## CCCCC(CC)CN=C(N)NC(N)=NCCCCCCN=C(N)NC(N)=NCC(CC)CCCC (configuration not stated)
DU-145 prostate
  GI50: 3.26 µM
  TGI: 11.4 µM
MDA-MB-231 breast
  GI50: 1.85 µM
  TGI: 3.65 µM
NCI/ADR-RES ovarian
  GI50: 10.4 µM
  TGI: 33.6 µM

## CC(C)c1cc(-c2n[nH]c(=O)n2-c2ccc3c(ccn3C)c2)c(O)cc1O
MCF7 breast
  GI50: < 0.0161 µM
  TGI: 17.3 µM
PC-3 prostate
  GI50: < 0.0224 µM
  TGI: 49.6 µM
DU-145 prostate
  GI50: < 0.0237 µM
  TGI: 23 µM
MDA-MB-231 breast
  GI50: < 0.023 µM
  TGI: 7.52 µM
NCI/ADR-RES ovarian
  GI50: 0.0409 µM
  TGI: > 100 µM

## COc1cc(C2CC(c3ccc4c(c3)OCO4)=NN2C=O)cc(OC)c1OC (configuration not stated)
MCF7 breast
  GI50: 1.34 µM
  TGI: > 100 µM
PC-3 prostate
  GI50: 4.92 µM
  TGI: > 100 µM
DU-145 prostate
  GI50: 2.63 µM
  TGI: > 26.1 µM
MDA-MB-231 breast
  GI50: > 25.3 µM
  TGI: > 100 µM
NCI/ADR-RES ovarian
  GI50: 1.13 µM
  TGI: > 20.1 µM

## OC(c1cc(-c2ccccc2)nc2ccc(Cl)cc12)C1CCCCN1 (configuration not stated)
MCF7 breast
  GI50: 1.67 µM
  TGI: 3.14 µM
PC-3 prostate
  GI50: 2.21 µM
  TGI: 4.79 µM
DU-145 prostate
  GI50: 3.07 µM
  TGI: 8.74 µM
MDA-MB-231 breast
  GI50: 1.78 µM
  TGI: 3.94 µM
NCI/ADR-RES ovarian
  GI50: 2.25 µM
  TGI: 5.35 µM

## CCOC(=O)c1c2c(n3ccccc13)C(=O)c1ccccc1C2=O
MCF7 breast
  TGI: > 100 µM
PC-3 prostate
  TGI: > 100 µM
DU-145 prostate
  TGI: > 100 µM
MDA-MB-231 breast
  TGI: > 100 µM
NCI/ADR-RES ovarian
  TGI: > 100 µM

## COc1ccc(-c2csc(N(C(=O)N3CCN(c4cc5c(cc4F)c(=O)c(C(=O)O)cn5C4CC4)CC3)c3ccccc3)n2)cc1
MCF7 breast
  GI50: 3.09 µM
  TGI: > 100 µM
PC-3 prostate
  GI50: 2.77 µM
  TGI: > 100 µM
DU-145 prostate
  GI50: 1.49 µM
  TGI: > 100 µM
MDA-MB-231 breast
  GI50: 2.44 µM
  TGI: 8.13 µM
NCI/ADR-RES ovarian
  GI50: 3.78 µM
  TGI: > 100 µM

## COC(=O)[C@H](C[C@H](Cc1ccccc1)NC(=O)c1csc([C@@H](C[C@H](C(C)C)N(C)C(=O)[C@@H](NC(=O)[C@H]2CCCCN2C)C(C)C)OC(C)=O)n1)NC(=O)OCc1ccccc1
MCF7 breast
  GI50: < 0.0009 µM
  TGI: > 9 µM
PC-3 prostate
  GI50: < 0.0009 µM
  TGI: > 9 µM
DU-145 prostate
  GI50: < 0.0009 µM
  TGI: 1.31 µM
MDA-MB-231 breast
  GI50: 0.00108 µM
  TGI: > 4.9 µM
NCI/ADR-RES ovarian
  GI50: 0.0333 µM
  TGI: 1.52 µM

## Cc1ccccc1[P+](Cc1ccccc1)(c1ccccc1)c1ccccc1
MCF7 breast
  GI50: 0.89 µM
  TGI: > 100 µM
PC-3 prostate
  GI50: 1.45 µM
  TGI: > 100 µM
DU-145 prostate
  GI50: 3.69 µM
  TGI: > 100 µM
MDA-MB-231 breast
  GI50: 2.06 µM
  TGI: 28 µM
NCI/ADR-RES ovarian
  GI50: > 100 µM
  TGI: > 100 µM

— PubChem BioAssay (NCI)
